Data set [1] is described as follows: Stability in cryopreserved hepatocytes, human. As for the experimental part: (§1) Mixed-gender human cryopreserved hepatocytes, male Sprague-Dawley rat cryopreserved hepatocytes, and male Beagle dog cryopreserved hepatocytes were purchased from XenoTech. The hepatocytes were thawed and prepared according to the vendor's instructions, pooled into Krebs Henseleit buffer (KHB, pH 7.4), and kept on ice prior to the experiments. […] The final DMSO content in the incubation mixture was ≤0.1%. […] Aliquots of the test article were withdrawn (n=1) at 0, 15, 30, 60, and 120 minutes. […] Aliquots of 7-HC were withdrawn (n=1) at 0 and 15 minutes. The reaction was immediately terminated by adding two volumes of ice-cold acetonitrile (ACN) to the test article samples and three volumes of ACN containing internal standard to the positive control samples. The samples were then mixed and centrifuged to precipitate proteins. An aliquot of the supernatant was then diluted with water and analyzed by LC-MS/MS against calibration standards prepared in a matched matrix. […] All test article samples were analyzed for the dosed prodrugs as well as the drug, treprostinil. The test article concentration was compared to the concentration at time 0 to determine the percent of test article remaining at each time point. Half-lives and clearance values were calculated using GraphPad software, fitting to a single-phase exponential decay equation.

The nature of data set [2]: Stability in cryopreserved hepatocytes, rat. As for the experimental part:
as §1

Data set [3] in a line: Stability in cryopreserved hepatocytes, dog. How it is done:
as §1

Data set [4] can be described thus: Stability in human subcutaneous skin homogenate. How it is done:
The pool of skin homogenate was prepared by combining equal volumes of three lots that were tested in the initial skin homogenate lot assessment experiments.
A stock solution of calcein-AM was first prepared at 5 mM in DMSO, followed by a serial dilution into methanol at a concentration of 100 μM. 495 μL of skin homogenate was thawed and warmed to 37° C. A 5 μL aliquot of the 100 μM calcein-AM solution was spiked into the skin homogenate, for a final calcein-AM dosing concentration of 1 μM. After briefly mixing, 150 μL aliquots were removed in triplicate and transferred to 96-well Falcon plates. The plates were placed onto a Thermomixer and maintained at 37° C., with gentle shaking for the duration of the experiment. At each time point (0, 15, 30, 60, and 120 minutes), the plate was removed from the Thermomixer and transferred to a FLUOstar® plate reader, and the formation of calcein (Sigma) was monitored by fluorescence (490/515 nm). Calibration standards of calcein were prepared in distilled water by serial dilutions of a calcein DMSO stock at final concentrations ranging from 1 μM to 1 nM. All samples and standards were read concurrently (Table 13).
For each of the test articles, 495 μL of skin homogenate was added to triplicate centrifuge tubes. To each tube, 5 μL of a 100 μM solution of test article was added, for a final test article dosing concentration of 1 μM. The tubes were placed onto a Thermomixer and maintained at 37° C. with gentle shaking for the duration of the experiment. At each time point (0, 30, 60, and 120 minutes), a 100 μL aliquot was removed from each tube and combined with 200 μL of acetonitrile to stop the stability reaction. The tubes were mixed and centrifuged at 3000 rpm for 10 minutes. Aliquots of supernatant were removed and diluted 1:1 with distilled water containing internal standard (2 μM treprostinil-d4). Calibration standards for the treprostinil analysis were prepared for each test article in a surrogate matrix (supernatant from a mixture of 1:2 human plasma:acetonitrile), at concentrations ranging from 1 μM to 1 nM. Calibration standards were also diluted 1:1 with distilled water containing internal standard. The disappearance of each individual test article was monitored, as well as the formation of treprostinil (Table 14 and Table 15).

Data set [5] can be described thus: Stability in liver microsomes, human. Particulars: human. As for the experimental part:
(§2) Mixed-gender human liver microsomes, male Sprague-Dawley rat liver microsomes, and male Beagle dog liver microsomes were purchased from XenoTech. The reaction mixture, minus NADPH, was prepared as described below. […] An aliquot of the reaction mixture (without cofactor) was equilibrated in a shaking water bath at 37° C. for 5 minutes. The reaction was initiated by the addition of cofactor, and the mixture was incubated in a shaking water bath at 37° C. Aliquots (200 μL) were withdrawn at 0, 10, 20, 30, and 60 minutes. Test article samples were immediately combined with 400 μL of ice-cold acetonitrile (ACN) to terminate the reaction. […] The samples were then mixed and centrifuged to precipitate proteins. Aliquots of the supernatant were removed, diluted 1:1 into distilled water containing internal standard, and analyzed by LC-MS/MS against calibration standards prepared in a matched matrix. All samples were analyzed for the dosed prodrugs as well as the drug, treprostinil. The test article concentration was compared to the concentration at time 0 to determine the percent of test article remaining at each time point. Half-lives and clearance were calculated using GraphPad software, fitting to a single-phase exponential decay equation.
(§3) • Liver Microsomes 0.5 mg/mL • NADPH (cofactor) 1 mM • Potassium Phosphate, pH 7.4 100 mM • Magnesium Chloride 5 mM • Test Article 1 μM
For orientation: Liver microsomes are a subcellular fraction often used to study metabolism.

A short description of data set [6]: Stability in liver microsomes, rat. Conditions: rat. As for the experimental part: as §2, §3
Data set [7] in a line: Stability in liver microsomes, dog. Conditions: dog. How it is done:
as §2, §3

The mark [8] stands for this setting: both, human, 15 min, 100 μM, pH 7.4.
The mark [9] stands for this setting: male, Sprague-Dawley, rat, 15 min, 100 μM, pH 7.4.
The mark [10] stands for this setting: male, Beagle, dog, 15 min, 100 μM, pH 7.4.

13 compounds from patent US12491170B2, “Stable treprostinil prodrugs” (United Therapeutics Corporation, priority 2020, dated 2025) can be followed below.

Consider `O=c1ccc2ccc(O)cc2o1` [7-Hydroxycoumarin, 7-hydroxycoumarin, reference compound], for which the “Formation Rate of 7-HC-G (glucuronide)” value came out at 97.7 pmol/min/10^6 cells in data set [1] (setting [8]), 91.4 pmol/min/10^6 cells in data set [2] (setting [9]) and 114 pmol/min/10^6 cells in data set [3] (setting [10]). For the same compound, the “Formation Rate of 7-HC-S (sulfate)” value was 10.8 pmol/min/10^6 cells in data set [1] (setting [8]), 24.7 pmol/min/10^6 cells in data set [2] (setting [9]) and 35.9 pmol/min/10^6 cells in data set [3] (setting [10]).
For `CCCCCC(CCC1C(O)CC2Cc3c(cccc3OCC(=O)O)CC21)OC(=O)OC` (stereo not drawn) [IV 1st], in data set [4] (human), the AUC (in general, concentration integrated over time) amounted to 7.07 µmol·min/L.
On the same count and under the same terms, the figure for `CCCCCC(CCC1C(O)CC2Cc3c(cccc3OCC(=O)O)CC21)OC(=O)OC` (stereo not drawn) [IV 2nd] is 62.69 µmol·min/L; for `CCCCCC(CCC1C(O)CC2Cc3c(cccc3OCC(=O)O)CC21)OC(=O)OC` (stereo not drawn) [IV 3rd] it is 9.59 µmol·min/L.
Regarding `CCCCCC(CCC1C(O)CC2Cc3c(cccc3OCC(=O)O)CC21)OCc1oc(=O)oc1C` (stereo not drawn) [LI], in data set [1], the “Trep Concentration (μM) 0 min” value worked out at 0.0425 µM, the “Trep Concentration (μM) 15 min” value was determined as 0.647 µM, the “Trep Concentration (μM) 30 min” value was 0.626 µM and the “Trep Concentration (μM) 60 min” value is 0.608 µM. The “Trep Concentration (μM) 120 min” value in data set [1] amounted to 0.55 µM. Further, in data set [1] (human), the exposure (AUC) is 67.97 µmol·min/L. In data set [2], the “Trep Concentration (μM) 0 min” value is 0.327 µM, the “Trep Concentration (μM) 15 min” value was determined as 0.703 µM, the “Trep Concentration (μM) 30 min” value worked out at 0.61 µM and the “Trep Concentration (μM) 60 min” value was determined as 0.523 µM. In data set [2], the “Trep Concentration (μM) 120 min” value worked out at 0.464 µM. Also, in data set [2] (rat), the exposure (AUC) is 64.18 µmol·min/L. Further, in data set [3], the “Trep Concentration (μM) 0 min” value was determined as 0.0214 µM, the “Trep Concentration (μM) 15 min” value was found to be 0.627 µM, the “Trep Concentration (μM) 30 min” value was 0.605 µM and the “Trep Concentration (μM) 60 min” value amounted to 0.537 µM. Also, the “Trep Concentration (μM) 120 min” value in data set [3] worked out at 0.482 µM. The exposure (AUC) in data set [3] (dog) stood at 61.80 µmol·min/L.
For `CCCCCC(CCC1C(O)CC2Cc3c(cccc3OCC(=O)O)CC21)OC(=O)OC` (stereo not drawn) [Prodrug IV], the “AUC Mono (treprostinil formed)” value in data set [5] is 16.9 µmol·min/L; in data set [6] it was 49.7 µmol·min/L; in data set [7] it was 56.0 µmol·min/L. Also, the “Mono AUC (treprostinil formed)” value in data set [1] (human) worked out at 39.8 µmol·min/L; in data set [2] (rat), 70.0 µmol·min/L; in data set [3] (dog), 48.0 µmol·min/L; in data set [4] (human), 9.59 µmol·min/L.
Turning to `C[C@]12CC[C@H]3[C@@H](CCC4=CC(=O)CC[C@@]43C)[C@@H]1CC[C@@H]2O` [Testosterone, testosterone, reference compound], in data set [1] (human hepatocytes, 1 μM, control), the “Half-life (positive control)” value is given as 4.82 min.
In turn, `CCCCCC(O)CCC1C(O)CC2Cc3c(cccc3OCC(=O)NCC(=O)O)CC21` (stereo not drawn) [VII new] came in with an AUC in data set [4] (human) of 0.00 µmol·min/L.
`CCCCCC(O)CCC1C(O)CC2Cc3c(cccc3OCC(=O)NCC(=O)O)CC21` (stereo not drawn) [VII orig] returned an area under the curve (AUC) in data set [4] (human) of 0.14 µmol·min/L.
For `CCCCCC(CCC1C(O)CC2Cc3c(cccc3OCC(=O)O)CC21)OC(=O)NC` (stereo not drawn) [VIII], in data set [1], the “Trep Concentration (μM) 0 min” value worked out at 0 µM, the “Trep Concentration (μM) 15 min” value turned out to be 0 µM, the “Trep Concentration (μM) 30 min” value is 0 µM and the “Trep Concentration (μM) 60 min” value is 0.00464 µM. Further, the “Trep Concentration (μM) 120 min” value in data set [1] came out at 0 µM. Also, the “AUC” value in data set [1] (human) stood at 0.21 µmol·min/L. Also, in data set [2], the “Trep Concentration (μM) 0 min” value was 0 µM, the “Trep Concentration (μM) 15 min” value was determined as 0 µM, the “Trep Concentration (μM) 30 min” value was 0 µM and the “Trep Concentration (μM) 60 min” value turned out to be 0.00511 µM. For the same compound, in data set [2], the “Trep Concentration (μM) 120 min” value was found to be 0 µM. Further, the “AUC” value in data set [2] (rat) worked out at 0.23 µmol·min/L. Besides, in data set [3], the “Trep Concentration (μM) 0 min” value amounted to 0 µM, the “Trep Concentration (μM) 15 min” value is 0 µM, the “Trep Concentration (μM) 30 min” value amounted to 0 µM and the “Trep Concentration (μM) 60 min” value is 0 µM. Also, the “Trep Concentration (μM) 120 min” value in data set [3] turned out to be 0 µM. Further, the area under the curve (AUC) in data set [3] (dog) amounted to 0.00 µmol·min/L. Moreover, in data set [4], the “Trep Concentration 0 min” value came to 0 µM, the “Trep Concentration 30 min” value is 0 µM, the “Trep Concentration 60 min” value was 0 µM and the “Trep Concentration 120 min” value stood at 0 µM. In addition, the AUC in data set [4] (human) worked out at 0.00 µmol·min/L.
Turning to `CCCCCC(CCC1C(O)CC2Cc3c(cccc3OCC(=O)O)CC21)OC(=O)OCCOCCOC` (stereo not drawn) [XLI], in data set [4], the “Trep Concentration 0 min” value came out at 0 µM, the “Trep Concentration 30 min” value amounted to 0.0526 µM, the “Trep Concentration 60 min” value turned out to be 0.091 µM and the “Trep Concentration 120 min” value was 0.19 µM. In data set [4] (human), this compound yielded an AUC of 11.37 µmol·min/L.
For `CCCCCC(CCC1C(O)CC2Cc3c(cccc3OCC(=O)O)CC21)OC(=O)OCCOC` (stereo not drawn) [XL] the same measures were 0 µM, 0.202 µM, 0.329 µM, 0.59 µM and 38.57 µmol·min/L.
For `CCCCCC(CCC1C(O)CC2Cc3c(cccc3OCC(=O)O)CC21)OC(=O)CCC(=O)O` (stereo not drawn) [XX new], in data set [4], the “Trep Concentration 0 min” value was 0 µM, the “Trep Concentration 30 min” value is 0.00878 µM, the “Trep Concentration 60 min” value was 0.0149 µM and the “Trep Concentration 120 min” value was 0.0271 µM. In addition, in data set [4] (human), the AUC was 1.75 µmol·min/L.
